According to EPA's ToxValDB 9.5:

What was measured:
Rattus norvegicus = conditions: oral
[1] = system: Crangonyx richmondensis ssp. laurentianus; assay: FEL; higher = less toxic; conditions: short-term; duration: 22 day; whole body; M/F; Monoporeia affinis; parasite infection
[2] = chronic, duration: 14 weeks, diet, M, Crl:CD(SD) BR, non-segmented neutrophils (N-SEG)
[3] = reproduction developmental, gavage, M/F, Sprague-Dawley, generation: F1, F1: IL-1beta mRNA level relative change: cortex (PND 0) + F1: IL-1beta mRNA level relative change: cortex (PND 21) + F1: IL-1beta mRNA level…
[4] = reproduction developmental, gavage, M/F, Sprague-Dawley, generation: F1, F1: TNFalpha mRNA level relative change: cortex (PND 0) + F1: TNFalpha mRNA level relative change: cortex (PND 21)
[5] = short-term, duration: 28 days, diet, F, Sprague-Dawley, spleen: spleen: relative weight + thymus: apoptotic cells in the thymic cortex + thymus: thymus: absolute weight + Total serum IgM level
[6] = short-term, duration: 28 days, diet, M, Sprague-Dawley, spleen: spleen: absolute weight + thymus: thymus: absolute weight
[7] = short-term, duration: 28 days, diet, M, Sprague-Dawley, thymus: apoptotic cells in the thymic cortex + thymus: apoptotic cells in the thymic medulla

Question: What does the source list for `O=S(=O)(O)C(F)(F)C(F)(F)C(F)(F)C(F)(F)C(F)(F)C(F)(F)C(F)(F)C(F)(F)F` [Perfluorooctanesulfonic acid]?
Answer: NOEL (Rattus norvegicus; chronic, duration: 14 weeks, diet, F, Crl:CD(SD) BR, non-segmented neutrophils (N-SEG)): 1.56 mg/kg-day; LOEL (Rattus norvegicus; [2]): 1.33 mg/kg-day; NOEL (Rattus norvegicus; [2]): 0.34 mg/kg-day; NOEL (Rattus norvegicus; chronic, duration: 104 weeks, diet, F, Crl:CD(SD) BR, blood: basophils + blood: eosinophils + blood: monocytes + blood: white blood cell count (WBC) + spleen: spleen: absolute weight (53 weeks…): 1.56 mg/kg-day; LOEL (Rattus norvegicus; chronic, duration: 104 weeks, diet, F, Crl:CD(SD) BR, blood: lymphocytes + blood: segmented neutrophils): 0.039 mg/kg-day; NOEL (Rattus norvegicus; chronic, duration: 104 weeks, diet, F, Crl:CD(SD) BR, spleen: spleen: absolute weight (14 weeks)): 0.39 mg/kg-day; LOEL (Rattus norvegicus; chronic, duration: 104 weeks, diet, F, Crl:CD(SD) BR, spleen: spleen: absolute weight (14 weeks) + spleen: spleen: relative weight (53 weeks)): 1.56 mg/kg-day; NOEL (Rattus norvegicus; chronic, duration: 104 weeks, diet, M, Crl:CD(SD) BR, blood: basophils + blood: eosinophils + blood: monocytes + blood: white blood cell count (WBC) + spleen: spleen: absolute weight (14 weeks…): 1.56 mg/kg-day; LOEL (Rattus norvegicus; chronic, duration: 104 weeks, diet, M, Crl:CD(SD) BR, blood: lymphocytes + blood: segmented neutrophils): 0.039 mg/kg-day; LOEL (Rattus norvegicus; chronic, duration: 104 weeks, diet, M, Crl:CD(SD) BR, spleen: spleen: absolute weight (53 weeks) + spleen: spleen: relative weight (53 weeks)): 1.56 mg/kg-day; LOEL (Rattus norvegicus; [3]): 0.6 mg/kg-day; NOEL (Rattus norvegicus; [3]): 0.1 mg/kg-day; LOEL (Rattus norvegicus; reproduction developmental, gavage, M/F, Sprague-Dawley, generation: F1, F1: IL-1beta mRNA level relative change: hippocampus (PND 0) + F1: TNFalpha mRNA level relative change: hippocampus (PND 0)): 0.1 mg/kg-day; LOEL (Rattus norvegicus; [4]): 2 mg/kg-day; NOEL (Rattus norvegicus; [4]): 0.6 mg/kg-day; NOEL (Rattus norvegicus; short-term, duration: 28 days, diet, F, Sprague-Dawley, blood: blood CD3+ cells + blood: blood CD3+CD4+ cells + blood: blood CD3+CD8+ cells + blood: blood CD45RA+ cells + IgG antibody titer (KLH…): 100 ppm; LOEL (Rattus norvegicus; [5]): 100 ppm; NOEL (Rattus norvegicus; [5]): 50 ppm; LOEL (Rattus norvegicus; short-term, duration: 28 days, diet, M, Sprague-Dawley, Total serum IgG1 level): 2 ppm; NOEL (Rattus norvegicus; short-term, duration: 28 days, diet, M, Sprague-Dawley, blood CD3+ cells + blood: blood CD3+ cells + blood: blood CD3+CD4+ cells + blood: blood CD3+CD8+ cells + blood: blood CD45RA+ cells + IgG …): 100 ppm; LOEL (Rattus norvegicus; [6]): 100 ppm; NOEL (Rattus norvegicus; [6]): 50 ppm; LOEL (Rattus norvegicus; [7]): 50 ppm; NOEL (Rattus norvegicus; [7]): 20 ppm; FEL [1]: 5 mg/L
